The subject of assay [1] is purified human lubricin. Nature of the assay: In vitro friction assay of protease-treated purified human lubricin. The settings on record: enzymes 0.5 U/mL, Lubricin = no enzyme, latex:glass bearing. The format is biochemical. On the procedure:
(§1) Human lubricin was purified from pooled SF aspirates of patients undergoing total knee replacement as described previously (Jay et al., Gluconj. J. 18:807-815, 2001). BSF was aspirated percutaneously from the lateral aspect of radiocarpal joints of freshly slaughtered cattle with sterile 18 gauge needles after cleansing the skin with alcohol swabs. The cattle were 1 year old and of both sexes (PelFreeze Corp., Little Rock, Ark.). The BSF was centrifuged at 20,000 g at 4° C. to remove cell debris and the BSF was stored at −20° C. Aliquots of purified human lubricin (1 mL, 250 μg/1 mL), and BSF (1 mL) were subjected to protease treatments with CB, NE, α-chymotrypsin, or trypsin. These enzymes were utilized as follows: 1) 0.5 U/mL of CB (Sigma-Aldrich, Saint Louis, Mo., one unit liberates 1 nanomole of 7-amino-4-methylcoumarin from Z-Arg-Arg 7-amido-4-methylcoumarin per min at pH 6.0 at 40° C.) reconstituted in 0.25 M Na acetate buffer, pH 5.5; 2) 0.5 U/mL NE (Sigma-Aldrich, one unit is defined as the release of 1 mole of p-nitrophenol per sec at 37° C.) reconstituted in 100 mM Tris-HCl, 100 mM CaCl2, pH 8.8; 3) 0.5 U/mL of TPCK-treated trypsin (Sigma-Aldrich, one unit causes a change in A253 of 0.001 per min at pH 7.6 at 25° C. using BAEE as a substrate) reconstituted in 50 mM Tris HCl, 20 mM CaCl2, pH 8.0; and 4) 0.5 U/mL of α-chymotrypsin (Sigma-Aldrich, one unit hydrolyzes 1.0 μmole of BTEE per min at pH 7.8 at 25° C.) reconstituted in 80 mM Tris-HCl, 100 mM CaCl2, pH 7.8.
(§2) Aliquots of digested human lubricin and BSF (200 μL) were removed after 2, 4, 6, 12, and 24 hours and the reaction was stopped by adding E-64 (L-trans-epoxysuccinyl-leucyl-amido-(4-guanidino)-butane, Sigma-Aldrich) to a final concentration of 100 μM (CB) or phenylmethanesulfonyl fluoride (PMSF, Sigma-Aldrich) to a final concentration of 1 mM (NE).
(§3) The boundary lubricating abilities of protease-treated human lubricin and BSF were measured using a friction apparatus as reported by Davis et al., J. Biomech. Eng. 101:185-192, 1979. Lubricant (200 μL) was applied between a bearing of latex and a ring of polished glass with a contact area of 1.59 cm^2. The latex was oscillated, under a pressure of 0.35×10^6 N/m^2, against the polished glass with an entraining velocity of 0.37 mm/sec. The bearing system was axially loaded within a gimbals system free to rotate around two perpendicular horizontal axes. The friction apparatus recorded displacements of the gimbals system around the vertical loading axis through a linear displacement voltage transducer, where the output was directly proportional to the frictional torque (F). A bearing load of 70 newtons (N) was related to the coefficient of friction (μ) via Amonton's law, F=μN.
(§4) The μ of the lubricant was recorded at room temperature and was preceded by a baseline measurement of μ with normal saline (NS). Lubrication was manifested by a reduction in μ by the lubricant relative to that of NS. Negative Δμ (−Δμ) values indicate lubrication whereas positive Δμ (+Δμ) indicate friction. Addition of 200 μL of lubricant was followed by bringing the bearing surfaces close enough so that the solution wet both surfaces. After 5 min for equilibration, the latex-coated bearing was brought to rest on the glass as it was oscillating. Voltage measurements were recorded at 1, 3, and 5 min. After 5 min, the surfaces were separated for 2 min and then brought back together for three additional 5 min session. The 3 and 5 min μ values of the last two 5 min session were recorded and averaged, and data were later combined with another duplicate experiment providing 8 distinct measurements of μ.

The test system of assay [2] is bovine synovial fluid (BSF). Nature of the assay: In vitro friction assay of protease-treated bovine synovial fluid. The assay is classed as biochemical. The settings on record: enzymes 0.5 U/mL, BSF = no enzyme, latex:glass bearing. On the procedure:
as §1, §2, §3, §4

Assay [3] deals with excised murine joints. Description: Ex vivo friction coefficient of excised murine joints after intra-articular protease (modified Stanton pendulum). The settings on record: for Friction coefficient μ ± S.D.: n = 4; for average increase in μ: after vs before intra-articular injection of 0.05 U, 2 hours at room temperature. Also noted: species or system murine (Svev129 mice). On the procedure:
Murine joint friction measurements were performed ex vivo in a modified Stanton pendulum configuration (Chamely, New Scientist 6:60, 1959) illustrated in FIG. 2. Excised murine joints, from 8 week old Svev129 mice, weighing approximately 20 grams (Taconic, Germantown, N.Y.), were stripped of supporting connective tissue and musculature, while the synovium was left undisturbed. The femur and tibia were severed mid-length and covered with connecting plexiglass tubing. The center of the joint served as the axis of rotation of a 1 Hz pendulum. The joints were loaded with 20 grams and allowed to oscillate. The pendulum was set in motion at an angle of 30° off the perpendicular axis. The pendulum motion was videotaped and post-hoc analysis was performed to establish baseline μ. The deceleration of the pendulum, a=dv/dt, was used to calculate μ. Velocity (v) was calculated from the equation: v=(2 gh)^1/2 where h is the height from where the pendulum reached apogee to the point of maximum velocity at a=0. The μ of murine joint was calculated to be equal a/g. Presently, this calculation neglects aerodynamic drag and assumes g equals 9.81 m/s^2. A 5 μL protease solution containing 0.05 U of CB, NE, α-chymotrypsin, or trypsin was delivered intra-articularly. The limbs were treated at room temperature for 2 hours and the limbs were subsequently allowed to oscillate to estimate μ following treatment with the protease.

The subject of assay [4] is purified human lubricin. Description: Western blot of protease-treated purified human lubricin (PNA-peroxidase and pAb J108). The assay is classed as biochemical. The method, then:
as §1, with “7.8. […]” for “7.8.”
Probing was performed using pAb J108, which recognizes an epitope; […], encoded by exon 3 within the amino-terminus of human lubricin/SZP and present in all alternatively spliced isoforms (Jay et al., J. Orthop. Res. 19:677-687, 2001). […] Immunopositive bands were detected in a darkroom on BioMax film (Kodak, Rochester, N.Y.). […]
(In general: In western blotting, separated proteins are transferred to a membrane and probed.)

Where [5] appears, read: After intra-articular injection of 5 μl containing 0.05 U, 2 hour treatment at room temperature.
The mark [6] stands for this setting: Before intra-articular injection (baseline).

For “Neutrophil Elastase: protease (Sigma-Aldrich) used to treat lubricin, BSF and murine joints”, the “Change in coefficient of friction Δμ ± S.D.” value (shortened to “Change … of friction Δμ ± S.D.”) in assay [1] (0 hrs) is −0.068 ± 0.005; in assay [1] (2 hrs), −0.038 ± 0.005; in assay [1] (4 hrs), −0.019 ± 0.004; in assay [1] (6 hrs) it was 0.004 ± 0.001; in assay [1] (12 hrs), 0.015 ± 0.003; in assay [1] (24 hrs), 0.054 ± 0.006. The “Change … of friction Δμ ± S.D.” value in assay [2] (0 hrs) is −0.061 ± 0.005; in assay [2] (2 hrs), −0.039 ± 0.001; in assay [2] (4 hrs), 0.007 ± 0.001; in assay [2] (6 hrs), 0.009 ± 0.001; in assay [2] (12 hrs), 0.010 ± 0.001; in assay [2] (24 hrs) it was 0.013 ± 0.002. In addition, the results for the “Friction coefficient μ ± S.D.” value in assay [3] (setting [5]) and in assay [3] (setting [6]) were 0.0028 ± 0.0008 and 0.0022 ± 0.0005, respectively. Further, in assay [3], the “average increase in μ” value came to 27.3%. The “Degradation of lubricin (band intensities)” value in assay [4] (0.5 U/mL, 2, 4, 6, 12, and 24 hours post-treatment) is reported as “time-dependent degradation of lubricin”. In assay [4] (following NE treatment for 2 hours at 37° C.), the “pAb J108 immunoreactive bands” value was “no pAb J108 immunoreactive bands were detected”.

B1: Trypsin: TPCK-treated trypsin (Sigma-Aldrich) used to treat lubricin, BSF and murine joints (protein, UniProt P00760 24-246, looked up)
Serine protease 1: IVGGYTCGANTVPYQVSLNSGYHFCGGSLINSQWVVSAAHCYKSGIQVRLGEDNINVVEGNEQFISASKSIVHPSYNSNTLNNDIMLIKLKSAASLNSRVASISLPTSCASAGTQCLISGWGNTKSSGTSYPDVLKCLKAPILSDSSCKSAYPGQITSNMFCAGYLEGGKDSCQGDSGGPVVCSGKLQGIVSWGSGCAQKNKPGVYTKVCNYVSWIKQTIASN
modifications: TPCK-treated
notes: TPCK-treated trypsin (Sigma-Aldrich) used to treat lubricin, BSF and murine joints
B1: the “Change … of friction Δμ ± S.D.” value in assay [1] (0 hrs) is listed as −0.068 ± 0.005; in assay [1] (2 hrs) it was 0.025 ± 0.006; in assay [1] (4 hrs), 0.032 ± 0.005; in assay [1] (6 hrs), 0.038 ± 0.001; in assay [1] (12 hrs), 0.046 ± 0.005; in assay [1] (24 hrs) it was 0.049 ± 0.005. The “Change … of friction Δμ ± S.D.” value in assay [2] (0 hrs) is −0.061 ± 0.005; in assay [2] (2 hrs) it was −0.031 ± 0.005; in assay [2] (4 hrs), −0.015 ± 0.002; in assay [2] (6 hrs) it was 0.005 ± 0.001; in assay [2] (12 hrs) it was 0.009 ± 0.003; in assay [2] (24 hrs), 0.012 ± 0.004. Also, the “Friction coefficient μ ± S.D.” value stood at 0.0034 ± 0.0003 in assay [3] (setting [5]) and 0.0018 ± 0.0001 in assay [3] (setting [6]). Moreover, the “average increase in μ” value in assay [3] was 88.9%. Besides, in assay [4] (after 2 hours of treatment (data not shown)), the “PNA and J108 reactivity of lubricin” value was “complete loss of PNA and J108 reactivity”.

For the origin of these results see patent publication US20080139458A1, “Methods of Treatment For Injured or Diseased Joints” (priority 2004, published 2008).
